Where two headings read alike, the source gives them in different places.
How the values were obtained:
[1] = test system: K1 Plasmodium falciparum; test: In vitro antimalarial activity, 48-h [3H]-hypoxanthine incorporation sensitivity assay; format: cell-based
Experimental: Antimalarial activity. The K1 strain of Plasmodium falciparum was used in this study. This strain is known to be CQ resistant Parasites were maintained in continuous culture using the method of Jensen and Trager (Trager, W; Jenson, J. B. Human Malaria Parasites in Continuous Culture. Science, 1976, 193, 673-675). Cultures were grown in flasks containing human erythrocytes (2-5%) with parasitemia in the range of 1% to 10% suspended in RPMI 1640 medium supplemented with 25 mM HEPES and 32 mM NaHCO3, and 10% human serum (complete medium). Cultures were gassed with a mixture of 3% O2, 4% CO2 and 93% N2. Antimalarial activity was assessed with an adaption of the 48-h sensitivity assay of Desjardins et al. using [^3H]-hypoxanthine incorporation as an assessment of parasite growth (Desjardins, R. E.; Canfield, C. J.; Haynes, J. D.; Chulay, J. D. Quantitative Assessment of Antimalarial activity in vitro by Semi-automated Microdilution Technique. Antimicrob. Agents Chemother., 1979, 16, 710-718). Stock drug solutions were prepared in 100% dimethylsulphoxide (DMSO) and diluted to the appropriate concentration using complete medium. Assays were performed in sterile 96-well microtitre plates, each plate contained 200 μl of parasite culture (2% parasitemia, 0.5% haematocrit) with or without 10 μl drug dilutions. Each drug was tested in triplicate and parasite growth compared to control wells (which consituted 100% parasite growth). After 24-h incubation at 37° C., 0.5 μCi hypoxanthine was added to each well. Cultures were incubated for a further 24 h before they were harvested onto filter-mats, dried for 1 h at 55° C. and counted using a Wallac 1450 Microbeta Trilux Liquid scintillation and luminescence counter. IC50 values were calculated by interpolation of the probit transformation of the log dose-response curve.

[2] = Erythrocyte, K1 strain (chloroquine resistant) of Plasmodium falciparum in human erythrocytes, triplicate, read-out: IC50

| SMILES | IC50 [1, 2] [nM] | melting point [°C] | IC50 ([1]; Plasmodium falciparum, K1, Erythrocyte) [nM] |
| --- | --- | --- | --- |
| CCN(CC)CCCC(C)Nc1ccnc2cc(Cl)ccc12 (stereo not drawn) [Chloroquine, reference compound] | – | – | 210 |
| CC1(CSc2ccc(Cl)cc2)COC2(CCCCCCCCCCC2)OO1 (stereo not drawn) [4k, 3-(4-Chloro-phenylsulfanylmethyl)-3-methyl-1,2,5-trioxa-spiro[5.11]heptadecane] | – | 93 to 94 | – |
| CC1(CS(=O)(=O)c2ccccc2)COC2(CCC2)OO1 (stereo not drawn) [8e, 7-Benzenesulfonylmethyl-7-methyl-5,6,9-trioxa-spiro[3.5]nonane] | – | 96 to 97 | – |
| CC1(CS(=O)(=O)c2ccccc2)COC2(CCC(=O)CC2)OO1 (stereo not drawn) [8h, 3-Benzenesulfonylmethyl-3-methyl-1,2,5-trioxa-spiro[5.5]undecan-9-one] | – | 96 | – |
| CC1(CS(=O)(=O)c2ccccc2)COC2(CCCCC2)OO1 (stereo not drawn) [8c, 3-Benzenesulfonylmethyl-3-methyl-1,2,5-trioxa-spiro[5.5]undecane] | – | 88 to 89 | – |
| CC1(CS(=O)(=O)c2ccccc2)COC2(CCC(C(C)(C)C)CC2)OO1 (stereo not drawn) [8g, 3-Benzenesulfonylmethyl-9-tert-butyl-3-methyl-1,2,5-trioxa-spiro[5.5]undecane] | – | 154 | – |
| C[C@@H]1CC[C@H]2[C@@H](C)C(=O)O[C@@H]3O[C@@]4(C)CC[C@@H]1[C@]32OO4 [Artemisinin, reference compound] | 12 | – | – |
| CC1(CS(=O)(=O)c2ccccc2)COC2(CCCCCCCCCCC2)OO1 (stereo not drawn) [8k, 3-Benzenesulfonylmethyl-3-methyl-1,2,5-trioxa-spiro[5.11]heptadecane] | – | 123 to 124 | – |
| CC1(CSc2ccc(Cl)cc2)COC2(CCCC2)OO1 (stereo not drawn) [4d, 8-(4-Chloro-phenylsulfanylmethyl)-8-methyl-6,7,10 trioxa-spiro[4.5]decane] | – | 69.8 to 70 | – |
| CC1(CS(=O)(=O)c2ccc(Cl)cc2)COC2(CCCCC2)OO1 (stereo not drawn) [8i, 3-(4-Chloro-benzenesulfonylmethyl)-3-methyl-1,2,5-trioxa-spiro[5.5]undecane] | 35 | 86 to 87 | – |

Further lines, with some results ahead:

| IC50 [1, 2] [nM] | melting point [°C] | SMILES | IC50 ([1]; Plasmodium falciparum, K1, Erythrocyte) [nM] |
| --- | --- | --- | --- |
| 329 | 126 to 127 | CC1(CS(=O)(=O)c2ccccc2)COC2(OO1)C1CC3CC(C1)CC2C3 (stereo not drawn) [8f, Adamantyl sulfone trioxane] | – |
| 285 | – | CC1(CSc2ccccc2)COC2(OO1)C1CC3CC(C1)CC2C3 (stereo not drawn) [4f, Adamantyl Trioxane] | – |
| 135 | 89 | CC1(CSc2ccccc2)COC2(CCCCCCCCCCC2)OO1 (stereo not drawn) [4j, 3-Methyl-3-phenylsulfanylmethyl-1,2,5-trioxa-spiro[5.11]heptadecane] | – |
| – | 45 to 46 | CC1(CSc2ccccc2)COC2(CCCCC2)OO1 (stereo not drawn) [4c, 3-Methyl-3-phenylsulfanylmethyl-1,2,5-trioxa-spiro[5.5]undecane] | – |
| 314 | – | CC1(CSc2ccccc2)COC2(CCC2)OO1 (stereo not drawn) [4e, 7-Methyl-7-phenylsulfanylmethyl-5,6,9-trioxa-spiro[3.5]nonane] | – |

Source: patent US20050256184A1, “1,2,4-Trioxanes and 1,2,4-trioxepanes” (priority 2004, published 2005)
